From ChEMBL document CHEMBL1177767, “The discovery and initial optimisation of pyrrole-2-carboxamides as inhibitors of p38alpha MAP kinase” (Bioorg Med Chem Lett, 2010)

Legend:
Type in all cases: ADME, organism-based
[1] = Oral bioavailability in CD rat at 1 mg/kg after 7 hrs by LC-MS/MS analysis; conditions: in vivo
[2] = Apparent volume of distribution at steady state in CD rat at 1 mg/kg, iv and 1 mg/kg, po after 7 hrs by LC-MS/MS analysis; conditions: in vivo, read-out: Vdss
[3] = Half life in CD rat at 1 mg/kg, iv and 1 mg/kg, po after 7 hrs by LC-MS/MS analysis; conditions: in vivo
[4] = Clearance in CD rat at 1 mg/kg, iv and 1 mg/kg, po after 7 hrs by LC-MS/MS analysis; conditions: in vivo

**Q.** With `Cc1ccccc1C(=O)c1c[nH]c(C(=O)NCc2ccco2)c1` as the compound, how does the bioavailability [1] read?
**A.** The bioavailability was 18%.

**Q.** What about the Vd [2] of the same compound?
**A.** Its Vd is 0.931 L/kg.

**Q.** What about the half-life [3] of the same compound?
**A.** The half-life was 9.6 min.

**Q.** And the clearance [4]?
**A.** The clearance was 56 mL/min/kg.
